Results reported in patent publication US20040097515A1, “Antimicrobial drug reduced in effect on heart” (priority 2001, published 2004).
Entries after “also recorded” stand apart in the source; their conditions may differ.

Legend:
[1] = tested on: guinea pig right ventricular myocardium sample; experiment: APD prolonging effect, action potential of guinea pig right ventricular myocardium sample; type: cell-based; settings: for relative strength of APD prolonging effect, Tukey test / APD prolonging effect (rate of change in APD90 with respect to the initial value), Average: after 60 minute-exposure; for relative strength of APD prolonging effect, Tukey test: statistically significant difference; for relative strength of APD prolonging effect: at each of the measured points; for myocardial action potential duration, effect of exposure: exposed for 10 minutes or more, paired t-test; for APD prolonging effect (rate of change in APD90 with respect to the initial value), Average: Dose 100 (μM)
Procedure: Slc: Hartley male guinea pigs (body weight: 322 to 667 g each) were employed as subjects.
Each of compound (I), compound (II), and gatifloxacin was dissolved in an aqueous 1% lactic acid solution, to thereby prepare a 10 mM solution. The resultant solution was employed as a drug solution.
Measurement of action potential was performed as follows. Specifically, the heart was quickly removed from each of the guinea pigs, and in a nutrition solution (Krebs-Henseleit) aerated with 95% O2+5% CO2 at room temperature, the right ventricular free wall was dissected to thereby prepare a myocardium sample. By use of an injection needle and platinum bipolar electrodes for electric stimulation, the sample was horizontally fixed onto a silicon block within a 20 ml organ bath (maintained at 36.5±0.5° C.) perfused with the nutrition solution aerated with 95% O2+5% CO2. During the test, the sample was electrically stimulated at a frequency of 1 Hz by means of rectangular pulses (voltage: about 1.3 times the threshold at which contraction of the sample is initiated, duration: 1 msec) provided from an electrostimulator via the platinum bipolar electrodes. The action potential of the cells was measured via glass microelectrodes (electrode resistance: 5 to 30 MΩ) which were filled with a 3 M KCl solution and connected to an amplifier for microelectrodes, and the action potential was recorded and analyzed by use of a computer. After electrical stimulation of the sample was continued for one hour or more, the action potential was measured before administration of the drug solution, and 10, 20, 30, 40, 50, and 60 minutes after administration of the drug solution. At each point in time, the action potential was measured and recorded in triplicate, and the average of the measured potentials was taken as the value for that point in time.
The drug solution (200 μL) was added to the 20 mL organ bath by use of a micropipette (final concentration of the drug solution in the bath: 100 μM). On the basis of the thus-measured action potential waveform, resting membrane potential (RMP), overshoot (OS), action potential amplitude (APA), action potential durations at 20%, 50%, and 90% repolarization (APD20, APD50, and APD90), and maximum rising velocity (Vmax) were obtained.
In each of the groups, the paired t-test was performed on the initial value of APD90 and on the action potential measured at each of the aforementioned points in time. Also, time-course variance analysis was performed, and the action potential after the 60 minute-exposure of the sample to the drug solution was subjected to the Tukey test, to thereby perform comparison between the groups. The level of significance was set at 5%, two-sided.

[2] = Japanese Journal of Chemotherapy, Volume 47, 1999; cited from earlier work
[3] = Japanese Journal of Chemotherapy, Volume 47, 1999; cited from earlier work; remark: listed apart in the source
E. Coli, NIHJ = experiment: Antimicrobial activity, standard method of Japanese Society of Chemotherapy; type: cell-based
Procedure: (§1) The antimicrobial activity of the thus-obtained compound was measured by means of the standard method of Japanese Society of Chemotherapy.

E. faecalis, 19433 = experiment: as above; type: cell-based
Procedure: as §1

P. aeruginosa, 32104 = experiment: as above; type: cell-based
Procedure: as §1

P. aeruginosa, 32121 = experiment: as above; type: cell-based
Procedure: as §1

P. vulgaris 08601 = experiment: as above; type: cell-based
Procedure: as §1

S. aureus, FDA 209-P = experiment: as above; type: cell-based
Procedure: as §1

S. epidermidis, 56500 = experiment: as above; type: cell-based
Procedure: as §1

S. marcescens, 101000 = experiment: as above; type: cell-based
Procedure: as §1

[4] = 100 μM, Time 10 (minutes after administration)
[5] = 100 μM, Time 20 (minutes after administration)
[6] = 100 μM, Time 30 (minutes after administration)
[7] = 100 μM, Time 40 (minutes after administration)
[8] = 100 μM, Time 50 (minutes after administration)
[9] = 100 μM, Time 60 (minutes after administration)
[10] = Time 0, initial value before administration of the drug solution

SMILES	myocardial action potential duration (APD90), Average [1, 4]	myocardial action potential duration (APD90), Average [1, 5]	myocardial action potential duration (APD90), Average [1, 6]	myocardial action potential duration (APD90), Average [1, 7]	myocardial action potential duration (APD90), Average [1, 8]	myocardial action potential duration (APD90), Average [1, 9]	relative strength of APD prolonging effect, Tukey test ([1]; 100 μM)	relative strength of APD prolonging effect ([1]; 100 μM)	myocardial action potential duration, effect of exposure ([1]; 100 μM)	APD prolonging effect (rate of change in APD90 with respect to the initial value), Average [1]	myocardial action potential duration (APD90), Average [1, 10]	antimicrobial activity, difference between the antipodes [2]	pharmacokinetic action in the body, difference between the antipodes [3]	other results
COc1c(N2CCN[C@H](C)C2)c(F)cc2c(=O)c(C(=O)O)cn(C3CC3)c12 [Compound (II), 1-Cyclopropyl-6-fluoro-1,4-dihydro-8-methoxy-7-{3-(R)-methylpiperazin-1-yl}-4-oxoquinoline-3-carboxylic acid]	185.9917	191.9500	194.2750	205.5900	203.1350	206.9400	compound (II)>gatifloxacin>compound (I)	compound (II)>gatifloxacin>compound (I)	significantly prolonged	17.1760	176.1567	no great difference	no great difference	
COc1c(N2CCNC(C)C2)c(F)cc2c(=O)c(C(=O)O)cn(C3CC3)c12 (stereo not shown) [Gatifloxacin]	180.6120	184.9200	192.2467	190.8950	201.5533	196.4925	compound (II)>gatifloxacin>compound (I)	compound (II)>gatifloxacin>compound (I)	significantly prolonged	13.7789	174.8600			
COc1c(N2CCN[C@@H](C)C2)c(F)cc2c(=O)c(C(=O)O)cn(C3CC3)c12 [Compound (I), 1-Cyclopropyl-6-fluoro-1,4-dihydro-8-methoxy-7-{3-(S)-methylpiperazin-1-yl}-4-oxoquinoline-3-carboxylic acid]	175.7500	180.2217	184.2600	190.6275	192.0675	193.5025	compound (II)>gatifloxacin>compound (I)	compound (II)>gatifloxacin>compound (I)	significantly prolonged	11.2206	170.3200	no great difference	no great difference	strength of APD prolonging effect compared with gatifloxacin and the antipode ([1]; 100 μM): significantly lower APD prolonging effect; also recorded: lower than that of the prolonging effect of gatifloxacin or compound (II); antimicrobial activity (E. Coli, NIHJ): ≦0.003; antimicrobial activity (E. faecalis, 19433): 0.39; antimicrobial activity (P. aeruginosa, 32104): 0.20; antimicrobial activity (P. aeruginosa, 32121): 0.10; antimicrobial activity (P. vulgaris 08601): 0.006; antimicrobial activity (S. aureus, FDA 209-P): 0.05; antimicrobial activity (S. epidermidis, 56500): 0.20; antimicrobial activity (S. marcescens, 101000): 0.10
